Results from patent US8227429B2, “Macrolide synthesis process and solid-state forms” (Intervet International B.V., priority 2006, dated 2012).
Structures can show the parent of a compound that is named as a salt. Where two headings read alike, the source gives them in different places. Blank lines part the entries; values can stand above or below the compound they belong to.

Assays:
[1] = Thermogravimetry coupled to FTIR (TG-FTIR); assay type: physicochemical
Method: Measurements of thermogravimetry coupled to Fourier transform infrared spectroscopy (“TG-FTIR”) were obtained using a Netzsch Thermo-Microbalance TG 209 with a Bruker Vector 22 FT-IR Spectrometer using an aluminum crucible (with micro-hole or open), N2 atmosphere, heating rate of 10° C./min, and temperature range of 25-250° C.

Solubility in tBME = assay type: physicochemical
[2] = Desolvation / stability on drying under vacuum
Method: In one experiment, the S2 crystalline solvate was prepared by dissolving the Form II polymorph of 20,23-dipiperidinyl-5-O-mycaminosyl-tylonolide (245.7 mg) in tert-butyl methyl ether (0.5 ml), and slowly evaporating a portion of the solvent at ambient temperature. After no crystals formed, additional tert-butyl methyl ether was added, followed by seeding S2 solvate crystals from the first batch. The solvent was then allowed to evaporate completely. […] In further testing, the crystals were vacuum-dried at ambient temperature for 20 hours, and then dried again under vacuum for 24 hours at about 70° C.

[3] = Dynamic vapor sorption (DVS) water uptake; assay type: physicochemical; conditions: 25° C.; for maximum water uptake: at 95% relative humidity
Method: Dynamic vapor sorption (“DVS”) measurements were obtained with a Projekt Messtechnik SPS11-100n water vapor sorption analyzer. The samples were placed into aluminum crucibles on a microbalance, and allowed to equilibrate at 25° C. and 50% relative humidity before initiating the following pre-defined humidity program at 25° C.: 50-95-0-50% relative humidity, and scanning with a 5% change in relative humidity per hour and with iso-humid equilibration periods at extreme values.

[4] = Relative solid-state stability (Applicants' observations); assay type: physicochemical
Thermogravimetry (TG) = assay type: physicochemical
Method: Thermogravimetry (“TG”) measurements were obtained with a Perkin Elmer TGS 2 thermogravimetric analyzer using an aluminum crucible (open), N2 atmosphere, heating rate of 10° C./min, and temperature range of 25-500° C.

Compound: CC[C@H]1OC(=O)C[C@@H](O)[C@H](C)[C@@H](OC2OC(C)C(O)C(N(C)C)C2O)[C@@H](CCN2CCCCC2)C[C@@H](C)C(=O)/C=C/C(C)=C/[C@@H]1CN1CCCCC1 (stereo in doubt) [diethyl ketone S1 crystalline solvate]
weight loss due to liberation of solvent [1]: 10%

Compound: CC[C@H]1OC(=O)C[C@@H](O)[C@H](C)[C@@H](OC2OC(C)C(O)C(N(C)C)C2O)[C@@H](CCN2CCCCC2)C[C@@H](C)C(=O)/C=C/C(C)=C/[C@@H]1CN1CCCCC1 (stereo in doubt) [ethyl acetate S1 crystalline solvate]
weight loss due to liberation of solvent [1]: approximately 4.1% | result of vacuum drying ([2]; ambient temperature): readily converted into the Form III polymorph

Compound: CC[C@H]1OC(=O)C[C@@H](O)[C@H](C)[C@@H](OC2OC(C)C(O)C(N(C)C)C2O)[C@@H](CCN2CCCCC2)C[C@@H](C)C(=O)/C=C/C(C)=C/[C@@H]1CN1CCCCC1 (stereo in doubt) [Form II polymorph]
maximum water uptake [3]: about 2 % (by weight) | temperature at which decomposition began [1]: greater than 220 °C | weight loss ([1]; mainly in the temperature range of from 50 to 100° C., attributed to water loss): 0.7%

Compound: CC[C@H]1OC(=O)C[C@@H](O)[C@H](C)[C@@H](OC2OC(C)C(O)C(N(C)C)C2O)[C@@H](CCN2CCCCC2)C[C@@H](C)C(=O)/C=C/C(C)=C/[C@@H]1CN1CCCCC1 (stereo in doubt) [Form I polymorph]
maximum water uptake [3]: less than 1 % (by weight) | weight loss ([1]; temperature range of from 60 to 180° C., attributed to water loss): 0.6% | stability relative to other solid-state forms [4]: greater stability at ambient temperature than the other above-listed solid-state forms

Compound: CC[C@H]1OC(=O)C[C@@H](O)[C@H](C)[C@@H](OC2OC(C)C(O)C(N(C)C)C2O)[C@@H](CCN2CCCCC2)C[C@@H](C)C(=O)/C=C/C(C)=C/[C@@H]1CN1CCCCC1 (stereo in doubt) [THF S3 crystalline solvate]
weight loss due to liberation of solvent ([1]; at temperatures greater than 100° C.): about 8.1%

Compound: CC[C@H]1OC(=O)C[C@@H](O)[C@H](C)[C@@H](OC2OC(C)C(O)C(N(C)C)C2O)[C@@H](CCN2CCCCC2)C[C@@H](C)C(=O)/C=C/C(C)=C/[C@@H]1CN1CCCCC1 (stereo in doubt) [ethanol S1 crystalline solvate]
weight loss due to liberation of solvent ([1]; up to 200° C.): approximately 6.6%

Compound: CC[C@H]1OC(=O)C[C@@H](O)[C@H](C)[C@@H](OC2OC(C)C(O)C(N(C)C)C2O)[C@@H](CCN2CCCCC2)C[C@@H](C)C(=O)/C=C/C(C)=C/[C@@H]1CN1CCCCC1 (stereo in doubt) [Form III polymorph]
water uptake ([3]; between 70 and 85% relative humidity): about 6% | weight loss ([1]; up to 220° C., most between 50 and 120° C.): 1.7% | temperature at which decomposition began (Thermogravimetry (TG)): greater than 270 °C | weight loss (Thermogravimetry (TG); up to 200° C.): less than 0.05%

More lines, main results first:

solubility (Solubility in tBME; organic solvent or mixture): 40 to 50 mg/mL | solubility in tBME relative to the Form II polymorph (Solubility in tBME; solvent tBME): at least one order of magnitude less | weight loss due to liberation of solvent [1]: 8.7-10%
Compound: CC[C@H]1OC(=O)C[C@@H](O)[C@H](C)[C@@H](OC2OC(C)C(O)C(N(C)C)C2O)[C@@H](CCN2CCCCC2)C[C@@H](C)C(=O)/C=C/C(C)=C/[C@@H]1CN1CCCCC1 (stereo in doubt) [tBME S2 crystalline solvate]

temperature at which desolvation was nearly completed [1]: ~160 °C | weight loss due to liberation of solvent [1]: about 8.4%
Compound: CC[C@H]1OC(=O)C[C@@H](O)[C@H](C)[C@@H](OC2OC(C)C(O)C(N(C)C)C2O)[C@@H](CCN2CCCCC2)C[C@@H](C)C(=O)/C=C/C(C)=C/[C@@H]1CN1CCCCC1 (stereo partly shown) [methyl acetate crystalline solvate]

temperature at which desolvation was nearly completed [1]: ~130 °C | weight loss due to liberation of solvent [1]: about 7.7%
Compound: CC[C@H]1OC(=O)C[C@@H](O)[C@H](C)[C@@H](OC2OC(C)C(O)C(N(C)C)C2O)[C@@H](CCN2CCCCC2)C[C@@H](C)C(=O)/C=C/C(C)=C/[C@@H]1CN1CCCCC1 (stereo in doubt) [ethyl formate crystalline solvate]

stability ([2]; 60° C. at 1 mbar (absolute) for 1 day): exhibits stability | result of drying under vacuum ([2]; ambient temperature and 70° C.): no loss of solvent was observed
Compound: CC[C@H]1OC(=O)C[C@@H](O)[C@H](C)[C@@H](OC2OC(C)C(O)C(N(C)C)C2O)[C@@H](CCN2CCCCC2)C[C@@H](C)C(=O)/C=C/C(C)=C/[C@@H]1CN1CCCCC1 (stereo partly shown) [tBME S2 crystalline solvate]
stability relative to other solid-state forms ([4]; listed as tBME crystalline solvate): more stable than the ethyl acetate S1 crystalline solvate
